Assay [1] deals with T1, Protein cereblon/Tyrosine-protein kinase ITK/TSK (Homo sapiens, UniProt Q08881+Q96SW2). In words: PROTAC activity at CRBN/ITK in human Jurkat cells assessed as induction of ITK degradation by Western blot analysis. In kind it is cell-based.
Target sequence in this assay (Q96SW2 whole entry, one chain of several): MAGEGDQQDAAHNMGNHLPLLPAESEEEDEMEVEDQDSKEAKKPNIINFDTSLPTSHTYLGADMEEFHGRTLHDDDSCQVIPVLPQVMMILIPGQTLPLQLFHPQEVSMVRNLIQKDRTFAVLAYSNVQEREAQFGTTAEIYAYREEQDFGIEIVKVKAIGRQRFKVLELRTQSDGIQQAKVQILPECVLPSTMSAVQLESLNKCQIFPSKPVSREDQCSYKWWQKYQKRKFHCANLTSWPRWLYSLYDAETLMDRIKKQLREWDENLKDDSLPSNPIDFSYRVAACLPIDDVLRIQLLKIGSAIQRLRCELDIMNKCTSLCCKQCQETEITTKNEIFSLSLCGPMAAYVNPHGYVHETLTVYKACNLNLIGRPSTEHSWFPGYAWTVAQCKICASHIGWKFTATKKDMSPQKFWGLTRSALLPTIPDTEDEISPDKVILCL
The target in assay [2] is T1, Protein cereblon/Tyrosine-protein kinase ITK/TSK. In words: PROTAC activity at CRBN/ITK in human Jurkat cells assessed as maximum degradation at 0.01 to 10 uM by Western blot analysis relative to control. It counts as cell-based. The conditions noted are these: dose 0.01-10 µM.
Target sequence in this assay (Q96SW2 whole entry, looked up, one chain of several): as the sequence (Q96SW2 whole entry, one chain of several) above
For a further assay, the target named is Interleukin-2 (Homo sapiens, UniProt P60568). In words: Inhibition of IL-2 in human Jurkat T cells pretreated with compound for 16 hrs followed by anti-CD3 stimulation by ELISA analysis. In kind it is cell-based.
Assay [3] has as its target T2, Tyrosine-protein kinase ITK/TSK (Homo sapiens, UniProt Q08881).
T2 sequence (Q08881 whole entry): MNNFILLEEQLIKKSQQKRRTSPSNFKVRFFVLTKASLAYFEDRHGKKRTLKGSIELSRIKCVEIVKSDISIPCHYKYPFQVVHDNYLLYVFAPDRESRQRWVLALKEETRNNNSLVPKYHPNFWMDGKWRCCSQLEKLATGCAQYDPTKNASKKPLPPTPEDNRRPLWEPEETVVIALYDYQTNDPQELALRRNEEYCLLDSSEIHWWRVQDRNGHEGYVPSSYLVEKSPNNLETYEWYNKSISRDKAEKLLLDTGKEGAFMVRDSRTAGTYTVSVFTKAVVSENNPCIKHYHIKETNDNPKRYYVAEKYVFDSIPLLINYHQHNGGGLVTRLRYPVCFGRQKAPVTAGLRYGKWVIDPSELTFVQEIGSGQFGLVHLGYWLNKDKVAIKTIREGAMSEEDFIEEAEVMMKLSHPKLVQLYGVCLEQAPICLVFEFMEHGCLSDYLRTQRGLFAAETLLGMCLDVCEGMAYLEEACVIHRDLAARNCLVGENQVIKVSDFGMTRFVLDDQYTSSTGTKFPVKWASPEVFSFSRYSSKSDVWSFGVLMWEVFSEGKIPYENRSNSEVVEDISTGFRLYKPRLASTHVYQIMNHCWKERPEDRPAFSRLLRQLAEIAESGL
In words: Inhibition of ITK (unknown origin).

Chain of Interleukin-2 (P60568 whole entry): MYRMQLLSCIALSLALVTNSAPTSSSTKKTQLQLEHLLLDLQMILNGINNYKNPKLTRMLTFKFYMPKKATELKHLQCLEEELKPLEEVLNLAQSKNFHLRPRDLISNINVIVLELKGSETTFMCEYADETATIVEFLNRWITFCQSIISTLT

One may read the EC50 as the concentration giving half of the maximal effect. Broadly, the Emax is the maximal effect, on the per cent scale that the assay sets. `CN(CCCCCCCCCCC(=O)Nc1ccc2c(c1)C(=O)N(C1CCC(=O)NC1=O)C2=O)CC[C@@H](c1ccccc1)n1cc(NC(=O)c2n[nH]c3c2CCC(C)(C)C3)cn1` (some centres not stated): the EC50 in assay [1] (read-out: EC50) amounted to 75.4 nM. Also, in assay [2], the Emax worked out at 82%.
Taken in the same sequence, the figures for `CN(CCCCCCCCC(=O)Nc1ccc2c(c1)C(=O)N(C1CCC(=O)NC1=O)C2=O)CC[C@@H](c1ccccc1)n1cc(NC(=O)c2n[nH]c3c2CCC(C)(C)C3)cn1` (some centres not stated) were 5.5 nM and 93%.
Taken in the same sequence, the figures for `CN(CCCCC(=O)Nc1ccc2c(c1)C(=O)N(C1CCC(=O)NC1=O)C2=O)CC[C@@H](c1ccccc1)n1cc(NC(=O)c2n[nH]c3c2CCC(C)(C)C3)cn1` (some centres not stated) were 5.3 nM and 90%.
Taken in the same sequence, the figures for `CN(CCOCCOCCOCCNC(=O)CNc1cccc2c1C(=O)N(C1CCC(=O)NC1=O)C2=O)CC[C@@H](c1ccccc1)n1cc(NC(=O)c2n[nH]c3c2CCC(C)(C)C3)cn1` (some centres not stated) were 62.2 nM and 93%.
Turning to `CC1(C)CCc2c(C(=O)Nc3cnn([C@@H](CCN4CCN(CCC5CN(c6ccc7c(c6)C(=O)N(C6CCC(=O)NC6=O)C7=O)C5)CC4)c4ccccc4)c3)n[nH]c2C1` (some centres not stated), in assay [1] (read-out: EC50), the EC50 was 142 nM. Besides, in assay [2], the Emax turned out to be 90%.
Turning to `COc1cc(C)c(Sc2cnc(NC(=O)c3ccc(CNC(C)C(C)(C)C)cc3)s2)cc1C(=O)N1CCN(C(C)=O)CC1` (configuration not stated), on Interleukin-2, the EC50 amounted to 238 nM.
For the molecule `CN(CCOCCOCCOCCOCC(=O)Nc1cccc2c1C(=O)N(C1CCC(=O)NC1=O)C2=O)CC[C@@H](c1ccccc1)n1cc(NC(=O)c2n[nH]c3c2CCC(C)(C)C3)cn1` (some centres not stated), the EC50 in assay [1] (read-out: EC50) is 286 nM. In addition, the Emax in assay [2] worked out at 75%.
For `CN(CCOCCOCCOCC(=O)Nc1cccc2c1C(=O)N(C1CCC(=O)NC1=O)C2=O)CC[C@@H](c1ccccc1)n1cc(NC(=O)c2n[nH]c3c2CCC(C)(C)C3)cn1` (some centres not stated), the EC50 in assay [1] (read-out: EC50) is 353 nM. For the same molecule, in assay [2], the Emax came out at 75%.
On the same counts, the results for `CN(CCOCCC(=O)NC1=CCC2C(=O)N(C3CCC(=O)NC3=O)C(=O)C2=C1)CC[C@@H](c1ccccc1)n1cc(NC(=O)c2n[nH]c3c2CCC(C)(C)C3)cn1` (some centres not stated) are 15.6 nM and 97%.
Regarding `CN(CCCCCC(=O)Nc1ccc2c(c1)C(=O)N(C1CCC(=O)N(C)C1=O)C2=O)CC[C@@H](c1ccccc1)n1cc(NC(=O)c2n[nH]c3c2CCC(C)(C)C3)cn1` (some centres not stated), the EC50 result in assay [1] (jurkat) is “Not Active”.
Consider `CN(CCOCCOCC(=O)Nc1cccc2c1C(=O)N(C1CCC(=O)NC1=O)C2=O)CC[C@@H](c1ccccc1)n1cc(NC(=O)c2n[nH]c3c2CCC(C)(C)C3)cn1` (some centres not stated), for which the EC50 in assay [1] (read-out: EC50) is 220 nM. The Emax in assay [2] was 75%.
In the case of `CC1(C)CCc2c(C(=O)Nc3cnn([C@@H](CCN4CCN(CC5CN(c6ccc7c(c6)C(=O)N(C6CCC(=O)NC6=O)C7=O)C5)CC4)c4ccccc4)c3)n[nH]c2C1` (some centres not stated), the EC50 in assay [1] (read-out: EC50) turned out to be 10 nM. In assay [2], the Emax stood at 85%.
As to `CC1(C)CCc2c(C(=O)Nc3cnn([C@@H](CCN4CCN(CC5CCN(c6ccc7c(c6)C(=O)N(C6CCC(=O)NC6=O)C7=O)CC5)CC4)c4ccccc4)c3)n[nH]c2C1` (some centres not stated), the EC50 in assay [1] (read-out: EC50) turned out to be 29.3 nM. For the same molecule, the Emax in assay [2] was 90%.
On the same counts, the results for `CN(CCOCCOCCOCCOCC(=O)Nc1ccc2c(c1)C(=O)N(C1CCC(=O)NC1=O)C2=O)CC[C@@H](c1ccccc1)n1cc(NC(=O)c2n[nH]c3c2CCC(C)(C)C3)cn1` (some centres not stated) are 106 nM and 92%.
For `CN(CCOCCOCC(=O)Nc1ccc2c(c1)C(=O)N(C1CCC(=O)NC1=O)C2=O)CC[C@@H](c1ccccc1)n1cc(NC(=O)c2n[nH]c3c2CCC(C)(C)C3)cn1` (some centres not stated), in assay [1] (read-out: EC50), the EC50 worked out at 26.7 nM. The Emax in assay [2] turned out to be 95%.
The term IC50 denotes the concentration needed to halve the response being measured. Low readings indicate inhibition by little substance, high ones a need for much substance. `COc1cccc(-n2c(=O)c(C(=O)Nc3ccc(-c4nc(-c5ccnc(N6CC(OC)C6)c5)cnc4N)nc3)c(C)n2C)c1`: the half-maximal inhibitory concentration (IC50) in assay [3] is less than 4 nM.
As for `CN(CCOCCOCCNC(=O)CNc1cccc2c1C(=O)N(C1CCC(=O)NC1=O)C2=O)CC[C@@H](c1ccccc1)n1cc(NC(=O)c2n[nH]c3c2CCC(C)(C)C3)cn1` (some centres not stated), in assay [1] (read-out: EC50), the EC50 stood at 32.7 nM. Further, the Emax in assay [2] stood at 95%.
On the same counts, the results for `CN(CCOCCOCCOCC(=O)Nc1ccc2c(c1)C(=O)N(C1CCC(=O)NC1=O)C2=O)CC[C@@H](c1ccccc1)n1cc(NC(=O)c2n[nH]c3c2CCC(C)(C)C3)cn1` (some centres not stated) are 94.1 nM and 93%.
Taken in the same sequence, the figures for `CN(CCOCCNC(=O)CNc1cccc2c1C(=O)N(C1CCC(=O)NC1=O)C2=O)CC[C@@H](c1ccccc1)n1cc(NC(=O)c2n[nH]c3c2CCC(C)(C)C3)cn1` (some centres not stated) were 32.7 nM and 99%.
On the same counts, the results for `CN(CCCCCCC(=O)Nc1ccc2c(c1)C(=O)N(C1CCC(=O)NC1=O)C2=O)CC[C@@H](c1ccccc1)n1cc(NC(=O)c2n[nH]c3c2CCC(C)(C)C3)cn1` (some centres not stated) are 9 nM and 90%.

For the origin of these results see ChEMBL document CHEMBL5380833 (J Med Chem, 2023).
